Where two headings read alike, the source gives them in different places.
Experiments:
[1] = target: T1, human CB2R (hCB2R) (Homo sapiens, UniProt P34972); assay: Homologous competition binding, CHO(hCB2R) cell membranes
T1 construct: expressed in transfected cells; host or cells: CHO(hCB2R) cells, obtained from Paul L. Prather, University of Arkansas for Medical Sciences
Protocol: For binding studies crude homogenates of CHO(hCB2R) cells (obtained from Paul L. Prather, Department of Pharmacology and Toxicology, College of Medicine, University of Arkansas for Medical Sciences, USA) were incubated with the reference compound (self-blocking) or the CB2R-specific partial agonist GW405833 (Tocris Bioscience, Bristol, UK) with indicated concentrations at room temperature for 90 min. The total volume of 1 mL of each sample consisted of 600 µL incubation buffer (50 mM Tris HCl pH7.4, 5 mM MgCl2, 1 mM EDTA and 1% Bovine Serum Albumin), 200 µL cell membrane homogenates, 100 µL competitor or binding buffer (total binding) and 100 µl of binding buffer with [^18F]JHU94620-d8 (about 100 kBq per vial, corresponding to 0.8 to 1.6 nM). Incubation was terminated by rapid filtration through a GF-B glass fibre filter, pre-treated with 0.5% PVP with 0.1% Tween 20 solution, using a 48-well cell harvester, washed six times with buffer and filter bound activity was subsequently measured in a γ-counter (1480 WIZARD, Perkin Elmer, Turku, Finland).
The KD values were calculated with GraphPad Prism according to the modified Cheng-Prusoff method for homologous competitive binding studies, where the KD = Ki = IC50—[radioligand] and the Bmax = specific binding / [radioligand] / ((KD + [radioligand])) (Motulsky and Neubig [2000]), assuming a total protein content of 8.2% (1.3 10^–4 µg protein per voxel) in the spleen (Zaia et al. [2000]) or by determining the protein concentration of the cell membrane lysates using a BCA assay (Thermo Scientific, Braunschweig, Germany). The fractional occupancy defined as occupied binding sites per total binding sites is used to describe the binding fraction specifically bound to CB2R compared to unspecific binding, where [L] is the concentration of the ligand at the start of incubation.

[2] = Ex vivo radiometabolite analysis in CD-1 mice
Protocol: (§1) Female adult CD-1 mice (25–42 g body weight) were used for radiometabolite analysis of [^18F]JHU94620-d4 (n = 2, 33 and 34 MBq) and [^18F]JHU94620-d8 (n = 3, 26–33 MBq) at 30 min after intravenous tail vein injection of the radiotracer to allow for the comparison of radiometabolite analysis of [^18F]JHU94620 (Moldovan et al. [2016]). The mice were immobilized by short isoflurane narcosis for the injection of the radiotracer in a restrainer and awakened mice were kept in an isolated cage until euthanisation by cervical dislocation under isoflurane narcosis. Male Wistar rats (n = 12, 613–794 g) were used for radiometabolite analysis of [^18F]JHU94620-d8 at different time points (5, 15, 30 and 60 min p.i.) after intravenous tail vein injection of the radiotracer (37–74 MBq) for the correction of the input function in pharmacokinetic analysis. Rats were kept under isoflurane narcosis (gas mixture: 2.5% isoflurane and O2) on a warmed plate until euthanization by decapitation of deep narcotized animals. Plasma samples were obtained by centrifugation with 5500 g of blood samples for 2 min at 4 °C. Resected tissues brain and spleen were kept on ice and minced for 3 × 20 s with adding 0.5 to 1 mL of 0.9% NaCl using a Precellys lysing kit and Minilys homogenizer (Bertin Technologies SAS, Montigny-le-Bretonneux, France).
(§2) The samples were further processed for subsequent radio-chromatographic analyses. Two consecutive extractions were performed in duplicates for plasma and brain determinations. Plasma, brain and spleen samples were added to the four time the volume of an ice-cold MeOH/H2O mixture (9:1, v/v). The samples were vortexed for 3 min, incubated on ice for 5 min and centrifuged at 8,600 g for 5 min. Supernatants were collected and the precipitates were re-dissolved in 100 µL of extraction solvent and the extraction procedure was repeated. The activities of supernatants and precipitates were measured in a γ-counter (1480 WIZARD, Perkin Elmer), and the extraction efficiencies were calculated as the ratio of radioactivity in the supernatant to the radioactivity in the original sample (supernatant + precipitate). The supernatants from both extractions were combined, concentrated at 70 °C under argon stream up to a remaining volume of 100 µL, and subsequently analysed by analytical radio-HPLC (method A or B).

[3] = target: hCB2R(D80N) (Homo sapiens, UniProt P34972, D80N)
[4] = in vivo; conditions: male, Wistar, rat, iv
Protocol: as §1
as §2, with “The samples were vortexed for 3 min, incubated on ice for 5 min and centrifuged at 8,600 g for 5 min. Supernatants were collected and the precipitates were re-dissolved in 100 µL of extraction solvent and the extraction procedure was repeated.” left out

[5] = female, CD-1, mouse, in vivo, 30 min
[6] = female, Wistar, rat, in vivo, 60 min

hCB2R(D80N), sequence (P34972 whole entry D80N): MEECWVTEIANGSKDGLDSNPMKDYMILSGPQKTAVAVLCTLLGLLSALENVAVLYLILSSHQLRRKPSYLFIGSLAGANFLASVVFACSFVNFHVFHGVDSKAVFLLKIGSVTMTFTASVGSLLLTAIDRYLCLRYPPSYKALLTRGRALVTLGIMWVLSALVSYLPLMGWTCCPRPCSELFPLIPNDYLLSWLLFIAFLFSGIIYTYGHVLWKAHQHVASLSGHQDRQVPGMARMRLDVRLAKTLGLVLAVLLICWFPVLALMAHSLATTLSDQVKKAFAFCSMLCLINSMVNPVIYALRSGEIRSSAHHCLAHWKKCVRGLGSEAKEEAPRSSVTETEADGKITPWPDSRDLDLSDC
T1 sequence (P34972 whole entry): as the sequence (P34972 whole entry D80N) above, with N80D counted along it

Which Kd [1] does the source give for `[2H]C([2H])([18F])C([2H])([2H])C([2H])([2H])C([2H])([2H])n1c(C)c(C)s/c1=N\C(=O)C1C(C)(C)C1(C)C` [[^18F]JHU94620-d8] here?
Its Kd is 1.47 nM.

And the Bmax ([1]; CHO(hCB2R) cell membrane fractions)?
Its Bmax is 2.7 pmol mg^−1 protein.

And the “percentage printed at the radiotracer peak of the representative radio-HPLC chromatogram (Mice)” value ([2]; CD-1, mouse, in vivo, 30 min)?
The value was 80%.

What about the “parent fraction in brain, higher compared to the non-deuterated isotopologue” value ([2]; CD-1 mice, brain, 30 min p.i.) of the same molecule?
The value was 50%.

And the “parent fraction in brain” value ([2]; CD-1 mice, brain, 30 min p.i., mean ± SD)?
Its value is 0.72 ± 0.05.

And the “in vivo metabolic stability (comparison in words)” value ([2]; female, CD-1, mouse, in vivo, 0.5 h)?
Its value is “slightly superior to [^18F]JHU94620-d4”.

And the “parent fraction in blood plasma” value [2, 5]?
Its value is 0.13 ± 0.04.

What about the “parent fraction in spleen” value [2, 5] of the same molecule?
The value was 0.87 ± 0.10.

What about the “BPND in the hCB2R(D80N) region” value ([3]; SRTM, cerebellar region as reference) of the same molecule?
The value was 26.

And the “reduction of AUC20-60min when normalized to the cerebellum” value ([3]; after injection of GW405833, compared to the control group)?
The value was 61%.

What about the “TAC peak, potential reference regions (contralateral and cerebellum)” value ([3]; female, Wistar, rat, in vivo) of the same molecule?
Its value is “about 3 SUVmean”.

What about the “VT in the brain region bearing the hCB2R(D80N) overexpression” value ([3]; female, Wistar, rat, in vivo) of the same molecule?
Its value is 320 ± 135 mL ccm^−1.

What about the “VT in the other investigated brain regions” value ([3]; female, Wistar, rat, in vivo) of the same molecule?
Its value is 5.9-13.8 mL ccm^−1.

And the “SUVmean in the cerebellar region at 60 min p.i.” value [3, 6]?
The value was 0.16 ± 0.03 SUVmean.

What about the “SUVmean in the contralateral region at 60 min p.i.” value [3, 6] of the same molecule?
Its value is 0.8 ± 0.3 SUVmean.

What about the “AUC20-60min (CI95%), hCB2R D80N-to-Cerebellum” value ([3]; human, in vivo) of the same molecule?
Its value is 1128 (1058 to 1198) SUVr ∙ min.

What about the “AUC20-60min (CI95%), hCB2R D80N-to-Contralateral” value ([3]; human, in vivo) of the same molecule?
The value was 291 (226 to 355) SUVr ∙ min.

And the “AUC, Cerebellum” value ([3]; human, in vivo)?
Its value is 30 ± 4 SUV ∙ min.

What about the “AUC, Contralateral” value ([3]; human, in vivo) of the same molecule?
Its value is 74 ± 16 SUV ∙ min.

And the “AUC, hCB2R(D80N)” value ([3]; human, in vivo)?
Its value is 412 ± 90 SUV ∙ min.

And the “AUC20-60min (CI95%), hCB2R D80N-to-Cerebellum” value ([3]; human, in vivo, iv, 5 mg/kg)?
The value was 435 (367 to 502) SUVr ∙ min.

And the “AUC20-60min (CI95%), hCB2R D80N-to-Contralateral” value ([3]; human, in vivo, iv, 5 mg/kg)?
Its value is 272 (233 to 311) SUVr ∙ min.

What about the half-life ([4]; metabolic half-life (t1/2) in brain) of the same molecule?
Its half-life is 53.8 min.

What about the half-life ([4]; metabolic half-life (t1/2) in plasma) of the same molecule?
The half-life was 7.6 min.

And the half-life ([4]; metabolic half-life (t1/2) in spleen)?
Its half-life is 37.3 min.

Source: paper PMC11666850, “Development and evaluation of deuterated [^18F]JHU94620 isotopologues for the non-invasive assessment of the cannabinoid type 2 receptor in brain” (EJNMMI Radiopharmacy and Chemistry, 2024)
